Paper PMC11558679, “Artificial Zymogen Based on Protein–Polymer Hybrids” (Biomacromolecules, 2024)
Several values for one entry are separate records, joined by “and”; a condition that tells them apart may be missing. Equal values may be shown once. Read-outs that look alike come from different tables or passages of the source. Square brackets hold non-standard residues; d marks the D form. Peptide text beside a SMILES is read from it. * marks the point of attachment. OEGMA = oligo(ethylene glycol) methacrylate; PEG4 = NCCOCCOCCOCCOCCC(=O)O; Tos = Cc1ccc(S(=O)(=O)*)cc1; Isobutyryl = CC(C)C(=O)*; NHBn = c1ccc(CN*)cc1; Sar = CNCC(=O)O

What was measured:
Assay type in all cases: biochemical, bovine
native trypsin = target: T1, native trypsin (Bos taurus, UniProt P00760); assay: Inhibition of native trypsin by model peptide inhibitor and macromonomer; details: for Km: read-out: apparent KM; for Ki: substrate Tos-GPR-pNA, 100 mM Tris-HCl and 20 mM CaCl2 (pH 8.0), 37 °C, [TR]0 = 8.4 nM, from secondary plot KM/Vmax app vs [I]0
T1 construct: purchased Sigma-Aldrich; host or cells: bovine pancreas
T1 sequence (P00760 24-246): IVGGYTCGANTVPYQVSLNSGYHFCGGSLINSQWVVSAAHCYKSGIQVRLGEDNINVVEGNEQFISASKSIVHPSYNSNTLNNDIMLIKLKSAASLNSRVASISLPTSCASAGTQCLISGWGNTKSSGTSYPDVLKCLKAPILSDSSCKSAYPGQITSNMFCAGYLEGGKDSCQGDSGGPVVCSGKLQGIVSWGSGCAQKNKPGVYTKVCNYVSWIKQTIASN
Description: (§1) Co mparison of K M of peptide substrates and K i of model peptide inhibitors and ma cro mono mers against native trypsin and chymotrypsin.
(§2) By observing the initial rate of enzyme activity in the presence of th e peptide inhibitor or macromonomer, the K i value of the inhibitor peptide and macromonomers can be determined (Figures S9 for native trypsin,and S14 for native ch ymotrypsin). The apparent KM and Vmax values are obtained b y si multaneousl y mixing nat ive trypsin or ch ymotr ypsin, a peptide substrat e, and a peptide inhibitor, and then monitoring the pNA produced b y enzymatically catal yzed hydrol ysis of the p eptide substrate. The apparent KM and Vmax values were calculated using EnzFitter with Michaelis-Menten curve fitting of substrate against initial velocity plots ( Fi g u re S10 and S12 and Table S1 and S2 for native trypsin, and Figure S15 and S17 and T ab l e S3 and S4 for native ch ymotr ypsin ). The plot of K M ass/Vma x app versus [I]0 or [macromonomers]0 yields a straight line with a y-intercept of K M/Vmax and a slope of K M/(Vmax ·Ki) (Figures S11 and S13 for native tr ypsin and S1 6 and S18 for native ch ymotrypsin, respsctiver y ). The inhibition constant (Ki) of the peptide inhibi tor or macromonomer was calculated b y simply dividing the y -inter cept […]
(1 picture or pasted object on this page, not shown here)
Table S1. Apparent KM a nd Vma x values for native trypsin incubated with Tos-GPR-pNA (substrate) and Tos-GPRP -NHBzl (inhibitor) at 37 °C in 100 mM Tris-HCl and 20 mM CaCl2 buffer (pH 8.0) […]
Buffer: 100 mM Tris-H Cl a nd 20 mM Ca Cl2 (pH 8.0) at 37 °C, [TR]0 = 8.4 nM, [TosGPRpNA]0 = 0 – 302 µ M a nd [TosGP RP Bzl]0 = 0 – 500 µM, Monitor Abs at 412 nm.
Figure S11. Secondary plot with calculated apparent K M and Vmax values were used to determine inhibition constants of the peptide inhibitor towards native trypsin.
Figure S12. Michaelis-Menten Plots adding a the macromonomer containing a CT -cleavable and a TR-inhibiting peptides (T o s GPRPr o -PEG4-AAPFAA OE GMA) to a native trypsin solution.
Table S2. Apparent KM a nd Vma x values for native trypsin incubated with Tos-GPR-pNA (substrate) and the macromonomer containing a CT -cleavable and a TR-inhibiting peptides (TosGPRPro-PEG4-AAPFAA OEGMA) at 37 °C in 100 mM Tris -HCl and 20 mM CaCl2 buffer (pH 8.0) .
Buffer: 100 mM Tris-H Cl a nd 20 mM Ca Cl2 (pH 8.0) at 37 °C, [TR]0 = 8.4 nM, [TosGPRpNA]0 = 0 – 241 µ M a nd [ macro mono mer]0 = 0 – 200 µM, Monitor Abs at 412 nm.

[1] = Biocatalytic assay (Michaelis–Menten) of TR and TR hybrids with Tos-Gly-Pro-Arg-pNA
Method: N-Tosyl-L-Gly-L-Pro-L-Arg-p-nitroanilide was used as a substrate for enzyme bioactivity assays. In a cuvette, 0.1 M Tris HCl and 20 mM calcium chloride buffer (890–990 μL, pH 8.0), substrate (0–100 μL, 2 mg/mL in DMSO), and enzyme (10 μL, 0.02 mg TR/mL in 100 mM Tris–HCl and 20 mM calcium chloride (pH 8.0), 8.4 nM as final concentration) were mixed for enzyme bioactivity assays. The rate of hydrolysis was determined by recording the increase in absorbance at 412 nm for the first 45 s after mixing. KM and kcat values were calculated using Enzfitter software when plotting substrate concentration versus initial hydrolysis velocity. […]
Table S5. Char acterization and enzymatic activity of TR-pCBMA and inhibited pro- T R pol ymer h ybr i ds with different linkers between the inhibitory and cleavable peptide moieties.
SEC-M ALLS anal ysi s Michaelis-Menten parameters d
Mnb Mwb Đb DPc KM kcat kcat/KM samples kg mol-1 kg mol-1 (CBM A/inhibitor) (µM) (s-1) (µM-1 s-1) […]
SEC -MALLS and 1H NMR spectra. d conditions: [TR]0 = 8.4 nM, [Tos-GPR-pNA]0 = 0 - 302 µM, buffer 100 mM Tris-HCl and 20 mM CaCl2 (pH 8.0) at 37 °C. […]

native chymotrypsin = target: T2, native chymotrypsin (Bos taurus, UniProt P00766); assay: Inhibition of native chymotrypsin by model peptide inhibitor and macromonomer; details: for KM/Vmax / apparent Vmax / kcat / kcat/KM / Km: [sucAAPFpNA]0 = 0–768 µM; for Km: read-out: apparent KM
T2 construct: α-Chymotrypsin from bovine pancreas, Type II (CT); purchased Sigma-Aldrich; host or cells: bovine pancreas
Description: as §1, §2
Figure S1 5 .Michaelis -Menten Plots adding a peptide inhibitor to a native c hymot r yps i n s ol ut i on.
Table S3. Apparent KM a nd Vma x values for native […] incubated with suc-AAPF -pNA ( subst r at e) and IB -AAPFSar-OMe (inhibitor) at 37 °C in 100 mM sodium phosphate buffer (pH 8.0) […]
Buffer: 100 mM sodium phosphate (pH 8.0) at 37 °C, [CT]0 = 40 nM, [sucAAPFpNA]0 = 0 – 768 µ M and [IBAAPFSarOMe]0 = 0 – 500 µM, Monitor Abs at 412 nm.
Table S4. Apparent KM a nd Vma x values for native […] incubated with suc-AAPF -pNA ( subst r at e) and macromonomer containing a TR cleavable and CT inhibiting peptides
(IBAAPFSarPEG4GPRGGOEGMA) at 37 °C in 100 mM sodium phosphate buffer (pH 8.0) . […]
macro mono mer]0 = 0 – 400 µM, Monitor Abs at 412 nm.
Figure S18. Michaelis -Menten Plots adding a macromonomer containing a TR cleavable and CT inhibiting peptides (IBAAPFSarPEG4GPRGGOEGMA) to a native chymotrypsin solution.

[2] = [macromonomer]0 = 50 µM, [TosGPRpNA]0 = 0–241 µM
[3] = [macromonomer]0 = 100 µM, [TosGPRpNA]0 = 0–241 µM
[4] = [macromonomer]0 = 150 µM, [TosGPRpNA]0 = 0–241 µM
[5] = [macromonomer]0 = 200 µM, [TosGPRpNA]0 = 0–241 µM
[6] = [TR]0 = 8.4 nM, [Tos-GPR-pNA]0 = 0–302 μM, 100 mM Tris–HCl and 20 mM CaCl2 (pH 8.0), 37 °C, absorbance 412 nm, first 45 s, Enzfitter

Tos-Gly-Pro-Arg-Pro-PEG4-Ala-Ala-Pro-Phe-Ala-Ala-OEGMA [TosGPRPro-PEG4-AAPFAA OEGMA]
KM/Vmax (native trypsin; [2]): 62.9 ± 7.3 s | apparent Vmax (native trypsin; [2]): 0.45 ± 0.02 µM/s | kcat (native trypsin; [2]): 53.4 ± 2.3 s⁻¹ | kcat/KM (native trypsin; [2]): 1.89e+06 ± 310000 M⁻¹ s⁻¹ | Km (native trypsin; [2]): 28.2 ± 4.5 µM | KM/Vmax (native trypsin; [3]): 77.9 ± 6.3 s | apparent Vmax (native trypsin; [3]): 0.24 ± 0.01 µM/s | kcat (native trypsin; [3]): 28.7 ± 0.7 s⁻¹ | kcat/KM (native trypsin; [3]): 1.53e+06 ± 170000 M⁻¹ s⁻¹ | Km (native trypsin; [3]): 18.8 ± 2.1 µM | KM/Vmax (native trypsin; [4]): 86.3 ± 7.8 s | apparent Vmax (native trypsin; [4]): 0.31 ± 0.01 µM/s | kcat (native trypsin; [4]): 36.5 ± 1.4 s⁻¹ | kcat/KM (native trypsin; [4]): 1.38e+06 ± 180000 M⁻¹ s⁻¹ | Km (native trypsin; [4]): 26.4 ± 3.2 µM | KM/Vmax (native trypsin; [5]): 97.7 ± 12.1 s | apparent Vmax (native trypsin; [5]): 0.36 ± 0.02 µM/s | kcat (native trypsin; [5]): 43.3 ± 2.1 s⁻¹ | kcat/KM (native trypsin; [5]): 1.22e+06 ± 210000 M⁻¹ s⁻¹ | Km (native trypsin; [5]): 35.5 ± 6 µM | Ki relative to KM (20 μM) of Tos-Gly-Pro-Arg-pNA (native trypsin; native TR): ~7.5 fold

Cc1ccc(S(=O)(=O)NCC(=O)N2CCC[C@H]2C(=O)N[C@@H](CCCNC(=N)N)C(=O)N2CCC[C@H]2C(=O)NCc2ccccc2)cc1 [Tos-Gly-Pro-Arg-Pro-NHBzl] (Tos-GPRP-NHBn)
KM/Vmax (native trypsin; [inhibitor]0 = 125 µM, [TosGPRpNA]0 = 0–302 µM): 48.3 ± 4.1 s | KM/Vmax (native trypsin; [inhibitor]0 = 250 µM, [TosGPRpNA]0 = 0–302 µM): 56.3 ± 5.0 s | KM/Vmax (native trypsin; [inhibitor]0 = 375 µM, [TosGPRpNA]0 = 0–302 µM): 73.4 ± 3.7 s | KM/Vmax (native trypsin; [inhibitor]0 = 500 µM, [TosGPRpNA]0 = 0–302 µM): 84.3 ± 6.0 s | Ki (native trypsin; native TR): 430 µM

N-Tosyl-glycyl-L-prolyl-L-arginine p-nitroanilide acetate salt [Tos-Gly-Pro-Arg-pNA, reference compound]
Km ([1]; rounded value in comparison with Ki, read-out: KM of the peptide substrate for native TR): 20 µM

IB-Ala-Ala-Pro-Phe-Sar-PEG4-Gly-Pro-Arg-Gly-Gly-OEGMA [IBAAPFSarPEG4GPRGGOEGMA]
KM/Vmax (native chymotrypsin; [macromonomer]0 = 100 µM): 61.8 ± 6.2 s | apparent Vmax (native chymotrypsin; [macromonomer]0 = 100 µM): 1.25 ± 0.03 µM/s | kcat (native chymotrypsin; [macromonomer]0 = 100 µM): 34.8 ± 0.8 s⁻¹ | kcat/KM (native chymotrypsin; [macromonomer]0 = 100 µM): 450000 ± 50000 M⁻¹ s⁻¹ | Km (native chymotrypsin; [macromonomer]0 = 100 µM): 77.5 ± 7.6 µM | KM/Vmax (native chymotrypsin; [macromonomer]0 = 200 µM): 65.3 ± 6.9 s | apparent Vmax (native chymotrypsin; [macromonomer]0 = 200 µM): 1.25 ± 0.03 µM/s | kcat (native chymotrypsin; [macromonomer]0 = 200 µM): 34.9 ± 0.8 s⁻¹ | kcat/KM (native chymotrypsin; [macromonomer]0 = 200 µM): 430000 ± 40000 M⁻¹ s⁻¹ | Km (native chymotrypsin; [macromonomer]0 = 200 µM): 82.1 ± 8.4 µM | KM/Vmax (native chymotrypsin; [macromonomer]0 = 300 µM): 72.9 ± 7.1 s | apparent Vmax (native chymotrypsin; [macromonomer]0 = 300 µM): 1.18 ± 0.03 µM/s | kcat (native chymotrypsin; [macromonomer]0 = 300 µM): 32.8 ± 0.7 s⁻¹ | kcat/KM (native chymotrypsin; [macromonomer]0 = 300 µM): 380000 ± 730000 M⁻¹ s⁻¹ | Km (native chymotrypsin; [macromonomer]0 = 300 µM): 86.1 ± 8.1 µM | KM/Vmax (native chymotrypsin; [macromonomer]0 = 400 µM): 89.4 ± 11.8 s | apparent Vmax (native chymotrypsin; [macromonomer]0 = 400 µM): 1.12 ± 0.04 µM/s | kcat (native chymotrypsin; [macromonomer]0 = 400 µM): 31.0 ± 1.0 s⁻¹ | kcat/KM (native chymotrypsin; [macromonomer]0 = 400 µM): 310000 ± 40000 M⁻¹ s⁻¹ | Km (native chymotrypsin; [macromonomer]0 = 400 µM): 99.7 ± 12.6 µM | Ki relative to KM (90 μM) of suc-Ala-Ala-Pro-Phe-pNA (native chymotrypsin; native CT): 2.8 fold | Ki (native chymotrypsin; native CT, substrate suc-AAPF-pNA, 100 mM sodium phosphate (pH 8.0), 37 °C, [CT]0 = 40 nM, from secondary plot KM/Vmax app vs [I]0, read-out: Ki): 260 µM

Tos-Gly-Pro-Arg-Pro-PEG4-Ala-Ala-Pro-Phe-Ala-Ala-OEGMA (Tos-GPRP[PEG4]AAPFAA-{OEGMA}) [TosGPRPro-PEG4-AAPFAA OEGMA]
Ki (native trypsin; native TR): 150 µM

COC(=O)CN(C)C(=O)[C@H](Cc1ccccc1)NC(=O)[C@@H]1CCCN1C(=O)[C@H](C)NC(=O)[C@H](C)NC(=O)C(C)C [isobutyryl-Ala-Ala-Pro-Phe-Sar-OMe] (Isobutyryl-AAPF[Sar]-OMe)
Ki (native chymotrypsin): 660 µM | KM/Vmax (native chymotrypsin; [inhibitor]0 = 125 µM): 62.9 ± 6.8 s | KM/Vmax (native chymotrypsin; [inhibitor]0 = 250 µM): 75.9 ± 11.5 s | KM/Vmax (native chymotrypsin; [inhibitor]0 = 375 µM): 84.8 ± 12.7 s | KM/Vmax (native chymotrypsin; [inhibitor]0 = 500 µM): 99.6 ± 11.7 s

B1: trypsin from bovine pancreas, Type I (protein, UniProt P00760 24-246, looked up)
Serine protease 1: IVGGYTCGANTVPYQVSLNSGYHFCGGSLINSQWVVSAAHCYKSGIQVRLGEDNINVVEGNEQFISASKSIVHPSYNSNTLNNDIMLIKLKSAASLNSRVASISLPTSCASAGTQCLISGWGNTKSSGTSYPDVLKCLKAPILSDSSCKSAYPGQITSNMFCAGYLEGGKDSCQGDSGGPVVCSGKLQGIVSWGSGCAQKNKPGVYTKVCNYVSWIKQTIASN
notes: trypsin from bovine pancreas, Type I (TR), Sigma-Aldrich
kcat [1, 6]: 63.5 s^–1 and 63.5 ± 1.3 s^–1 | kcat/KM [1, 6]: 2.87 ± 0.25 μM^–1 s^–1 | Km ([1]; [TR]0 = 8.4 nM, [Tos-GPR-pNA]0 = 0–302 μM, 100 mM Tris–HCl and 20 mM CaCl2 (pH 8.0), 37 °C, absorbance 412 nm, first 45 s, Enzfitter, read-out: KM): 22.2 ± 1.9 µM
